Experimental findings from ChEMBL document CHEMBL4118154, “Discovery of evocalcet, a next-generation calcium-sensing receptor agonist for the treatment of hyperparathyroidism” (Bioorg Med Chem Lett, 2018) are described below.

Active and inactive are the calls of the source. The calls are words filed in the database; no cut-off is given here. Some results are limits rather than exact numbers.

Data set [1] can be described thus: Intrinsic clearance in rat liver microsomes assessed per protein. The conditions noted are these: read-out: CLH. The class given is ADME, microsome. A general note: Microsomes from liver hold many membrane-bound enzymes, among them those of drug oxidation.
Data set [2] can be described thus: Cmax in monkey at 1 mg/kg, po. Further details: dose 1 mg/kg, route oral. The class given is ADME, organism-based, Macaca mulatta. The conditions noted are these: rhesus monkey, in vivo.
Data set [3] in a line: Intrinsic clearance in human liver microsomes assessed per protein. The class given is ADME, microsome. The conditions noted are these: read-out: CLH.
Data set [4] is described as follows: Initial plasma concentration in monkey at 0.3 mg/kg, iv. The conditions noted are these: rhesus monkey. It counts as ADME, organism-based, Macaca mulatta.
The target in data set [5] is T1, CYP2B6 (Homo sapiens, UniProt P20813).
T1 sequence (P20813 whole entry): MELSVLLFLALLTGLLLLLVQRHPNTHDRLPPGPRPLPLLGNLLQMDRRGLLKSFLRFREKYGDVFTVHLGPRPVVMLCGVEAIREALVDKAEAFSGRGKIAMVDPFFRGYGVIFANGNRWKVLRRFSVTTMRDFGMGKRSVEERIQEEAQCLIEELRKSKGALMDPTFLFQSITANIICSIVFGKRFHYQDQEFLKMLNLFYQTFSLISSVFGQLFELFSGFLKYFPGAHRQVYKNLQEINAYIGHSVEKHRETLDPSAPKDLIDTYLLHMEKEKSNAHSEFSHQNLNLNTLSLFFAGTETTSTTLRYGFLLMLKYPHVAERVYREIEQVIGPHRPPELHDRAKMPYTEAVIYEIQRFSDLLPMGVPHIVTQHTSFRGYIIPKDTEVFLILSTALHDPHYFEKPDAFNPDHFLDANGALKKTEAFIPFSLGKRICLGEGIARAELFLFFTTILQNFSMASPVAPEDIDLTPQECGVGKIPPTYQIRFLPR
Briefly: Inhibition of CYP2B6 (unknown origin). It counts as ADME.

Data set [6] in a line: AUC (0 to infinity) in rat at 0.3 mg/kg, iv. The class given is ADME, organism-based. Further details: dose 0.3 mg/kg, route intravenous, time infinity. The conditions noted are these: in vivo.
Data set [7] is described as follows: Oral bioavailability in rat at 1 mg/kg. It counts as ADME, organism-based. The conditions noted are these: in vivo.
Data set [8] is described as follows: AUC (0 to infinity) in monkey at 1 mg/kg, po. It counts as ADME, organism-based, Macaca mulatta. Also on record: dose 1 mg/kg, time infinity, route oral. The conditions noted are these: rhesus monkey, in vivo.
The nature of data set [9]: Cmax in rat at 1 mg/kg, po. The conditions noted are these: in vivo. The class given is ADME, organism-based. Further details: dose 1 mg/kg, route oral.
Data set [10] addresses CYP3A4/5 (Homo sapiens, UniProt P08684+P20815). Briefly: Inhibition of CYP3A4/5 (unknown origin). It counts as ADME, protein assay.
Data set [11] concerns the target T2, CYP1A2 (Homo sapiens, UniProt P05177).
T2 sequence (P05177 whole entry): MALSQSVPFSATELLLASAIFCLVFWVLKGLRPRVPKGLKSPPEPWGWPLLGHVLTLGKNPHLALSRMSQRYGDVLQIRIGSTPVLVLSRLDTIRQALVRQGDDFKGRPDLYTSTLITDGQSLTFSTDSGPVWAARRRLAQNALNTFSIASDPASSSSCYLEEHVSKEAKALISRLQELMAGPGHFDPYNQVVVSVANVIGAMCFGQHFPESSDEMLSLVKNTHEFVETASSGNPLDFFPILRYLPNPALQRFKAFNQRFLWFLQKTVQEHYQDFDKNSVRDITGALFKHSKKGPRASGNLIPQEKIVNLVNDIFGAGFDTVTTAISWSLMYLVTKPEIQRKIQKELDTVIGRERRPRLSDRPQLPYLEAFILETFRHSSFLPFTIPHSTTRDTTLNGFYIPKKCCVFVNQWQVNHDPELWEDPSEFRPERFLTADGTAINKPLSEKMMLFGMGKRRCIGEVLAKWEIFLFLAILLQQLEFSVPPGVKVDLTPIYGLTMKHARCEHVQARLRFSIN
The experiment in a line: Inhibition of CYP1A2 (unknown origin). It counts as ADME.

The nature of data set [12]: Volume of distribution at steady state in monkey at 0.3 mg/kg, iv. The class given is ADME, organism-based, Macaca mulatta. The conditions noted are these: rhesus monkey, in vivo, read-out: Vdss.
Data set [13] in a line: Initial plasma concentration in rat at 0.3 mg/kg, iv. The class given is ADME, organism-based.
Data set [14] addresses CYP2E1 (Homo sapiens, UniProt P05181). The experiment in a line: Inhibition of CYP2E1 (unknown origin). The class given is ADME.
The nature of data set [15]: Tmax in monkey at 1 mg/kg, po. The class given is ADME, organism-based, Macaca mulatta. The conditions noted are these: rhesus monkey, in vivo.
In data set [16] the target is T3, Extracellular calcium-sensing receptor (Homo sapiens) (UniProt P41180).
T3 sequence (whole entry): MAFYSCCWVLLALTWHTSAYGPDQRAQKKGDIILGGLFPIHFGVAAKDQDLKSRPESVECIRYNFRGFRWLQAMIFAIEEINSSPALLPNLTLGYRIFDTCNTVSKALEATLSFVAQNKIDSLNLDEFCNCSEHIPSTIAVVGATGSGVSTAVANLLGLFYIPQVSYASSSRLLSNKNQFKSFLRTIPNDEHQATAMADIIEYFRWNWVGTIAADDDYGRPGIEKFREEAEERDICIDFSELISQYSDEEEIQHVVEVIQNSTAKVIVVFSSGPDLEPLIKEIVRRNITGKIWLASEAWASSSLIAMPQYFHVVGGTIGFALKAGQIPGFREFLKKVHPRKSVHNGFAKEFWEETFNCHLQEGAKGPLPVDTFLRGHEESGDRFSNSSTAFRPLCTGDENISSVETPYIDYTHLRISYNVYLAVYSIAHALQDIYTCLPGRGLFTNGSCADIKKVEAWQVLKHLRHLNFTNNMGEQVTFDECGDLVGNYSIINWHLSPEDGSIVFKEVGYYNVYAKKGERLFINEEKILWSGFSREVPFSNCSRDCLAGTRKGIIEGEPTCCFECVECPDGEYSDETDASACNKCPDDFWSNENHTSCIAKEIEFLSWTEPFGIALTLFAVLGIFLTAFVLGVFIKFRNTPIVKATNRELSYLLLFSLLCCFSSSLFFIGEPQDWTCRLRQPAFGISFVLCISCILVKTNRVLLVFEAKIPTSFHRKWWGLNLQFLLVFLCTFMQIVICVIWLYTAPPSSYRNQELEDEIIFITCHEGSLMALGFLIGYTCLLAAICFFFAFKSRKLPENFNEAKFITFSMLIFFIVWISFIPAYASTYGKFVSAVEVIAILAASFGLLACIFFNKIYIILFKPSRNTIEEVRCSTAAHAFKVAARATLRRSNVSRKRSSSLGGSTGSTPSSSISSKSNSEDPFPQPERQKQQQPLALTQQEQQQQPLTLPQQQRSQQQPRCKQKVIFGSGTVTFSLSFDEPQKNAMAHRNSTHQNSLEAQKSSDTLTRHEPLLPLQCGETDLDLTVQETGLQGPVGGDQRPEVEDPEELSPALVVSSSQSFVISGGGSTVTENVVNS
Briefly: Binding affinity to human CaSR expressed in HEK293 cells after 30 mins in presence of NPS 568 by liquid scintillation counting method. The class given is cell-based.

CYP2E1, sequence (P05181 whole entry): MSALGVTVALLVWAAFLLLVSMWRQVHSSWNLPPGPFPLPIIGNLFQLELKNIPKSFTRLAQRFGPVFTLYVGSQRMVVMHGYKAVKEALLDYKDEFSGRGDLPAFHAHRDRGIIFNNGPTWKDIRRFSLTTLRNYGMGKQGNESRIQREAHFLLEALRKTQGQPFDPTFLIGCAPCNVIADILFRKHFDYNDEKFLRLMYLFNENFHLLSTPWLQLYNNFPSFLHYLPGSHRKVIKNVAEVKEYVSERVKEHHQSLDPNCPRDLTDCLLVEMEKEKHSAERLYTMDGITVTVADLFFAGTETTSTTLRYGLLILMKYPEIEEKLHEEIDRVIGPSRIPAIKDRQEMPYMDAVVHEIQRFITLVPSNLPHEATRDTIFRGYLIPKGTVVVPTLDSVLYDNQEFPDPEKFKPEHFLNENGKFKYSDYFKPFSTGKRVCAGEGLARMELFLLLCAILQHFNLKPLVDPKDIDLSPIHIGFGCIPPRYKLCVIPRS

In general, Cmax refers to the peak of the concentration-time curve. As a reminder, the IC50 is the midpoint of a concentration-inhibition curve. Usually AUC(0-inf) stands for the area under the concentration-time curve extrapolated to infinity. As usually defined, the bioavailability is the share of a dose that reaches the circulation, judged against a reference dose that is usually intravenous. The term Tmax denotes the time from dosing to the highest level. For the compound `C[C@@H](N[C@H]1CCN(c2ccc(CC(=O)O)cc2)C1)c1cccc2ccccc12.Cl.Cl`, the microsomal CLint in data set [1] worked out at 34 µL/min/mg; in data set [3], 68 µL/min/mg. Further, the Cmax in data set [2] worked out at 746 ng/mL; in data set [9] it was 2190 ng/mL. In addition, the values for the C0 in [4] and in data set [13] were 1630 ng/mL and 1080 ng/mL, respectively. The IC50 in [5], in [10], in [11] and in data set [14] was over 50 µM throughout. Further, the AUC(0-inf) in data set [6] was 3010 ng·h/mL; in [8], 1660 ng·h/mL. This compound had a bioavailability in [7] of 84.2%. In [12], the Vd worked out at 0.716 L/kg. The Tmax in data set [15] was determined as 1.38 h. The outcome in data set [16] was inactive.
